Experimental data reported in ChEMBL document CHEMBL3856194, “N'-((2-(6-bromo-2-oxo-2H-chromen-3-yl)-1H-indol-3-yl)methylene)benzohydrazide as a probable Bcl-2/Bcl-xL inhibitor with apoptotic and anti-metastatic potential” (Eur J Med Chem, 2016).

What was measured:
[1] = Cytotoxicity against human MCF7 cells assessed as cell growth inhibition after 48 hrs by MTT assay; assay type: functional, cell-based; conditions: MCF7, 48 h
[2] = Cytotoxicity against African green monkey Vero cells assessed as cell growth inhibition after 48 hrs by MTT assay; assay type: toxicity, cell-based; conditions: African green monkey (Chlorocebus sabaeus)
MCF7 [3] = assay: Selectivity index, ratio of IC50 for African green monkey Vero cells to IC50 for human MCF7 cells; assay type: functional
[4] = Cell cycle arrest in human MCF7 cells assessed as accumulation at sub-G0 phase at 0.5 uM after 18 to 24 hrs by propidium iodide staining based flow cytometry (reference value: 1.4 %); assay type: functional
[5] = Cell cycle arrest in human MCF7 cells assessed as accumulation at G0/G1 phase at 0.5 uM after 18 to 24 hrs by propidium iodide staining based flow cytometry (reference value: 67 %); assay type: functional
[6] = Cell cycle arrest in human MCF7 cells assessed as accumulation at S phase at 0.5 uM after 18 to 24 hrs by propidium iodide staining based flow cytometry (reference value: 8.5 %); assay type: functional
[7] = Cell cycle arrest in human MCF7 cells assessed as accumulation at G2/M phase at 0.5 uM after 18 to 24 hrs by propidium iodide staining based flow cytometry (reference value: 18.8 %); assay type: functional
MCF7 [8] = assay: Induction of apoptosis in human MCF7 cells assessed as viable cells after 24 to 48 hrs by Annexin V/7-AAD staining based flow cytometry (reference value: 72.30 %); assay type: functional
MCF7 [9] = assay: Induction of apoptosis in human MCF7 cells assessed as early apoptotic cells after 24 to 48 hrs by Annexin V/7-AAD staining based flow cytometry (reference value: 4.90 %); assay type: functional
MCF7 [10] = assay: Induction of apoptosis in human MCF7 cells assessed as late apoptotic cells after 24 to 48 hrs by Annexin V/7-AAD staining based flow cytometry (reference value: 16.05 %); assay type: functional
MCF7 [11] = assay: Induction of apoptosis in human MCF7 cells assessed as necrotic cells after 24 to 48 hrs by Annexin V/7-AAD staining based flow cytometry (reference value: 6.75 %); assay type: functional

SMILES | IC50 [1] [µM] | IC50 at 48 h [2] [µM] | further results
O=C(N/N=C/c1c(-c2cc3ccccc3oc2=O)[nH]c2ccccc12)c1cccc(Br)c1 | > 200 | > 200 | –
CC[C@]1(O)C[C@H]2CN(CCc3c([nH]c4ccccc34)[C@@](C(=O)OC)(c3cc4c(cc3OC)N(C=O)[C@H]3[C@@](O)(C(=O)OC)[C@H](OC(C)=O)[C@]5(CC)C=CCN6CC[C@]43[C@@H]65)C2)C1 [VINCRISTINE] | 0.3 | 0.9 | Ratio IC50 (MCF7 [3]): 3; Activity [4]: 5.1%; Activity [5]: 17.9%; Activity [6]: 7.8%; Activity [7]: 54.6%; Activity (MCF7 [8]): 56.1%; Activity (MCF7 [9]): 2.75%; Activity (MCF7 [10]): 17.7%; Activity (MCF7 [11]): 23.45%
O=C(N/N=C/c1c(-c2cc3ccccc3oc2=O)[nH]c2ccccc12)c1ccccc1 | > 200 | 121 | –
O=C(N/N=C/c1c(-c2cc3ccccc3oc2=O)[nH]c2ccccc12)c1ccccc1Cl | 164 | > 200 | –
O=C(N/N=C/c1c(-c2cc3ccccc3oc2=O)[nH]c2ccccc12)c1ccccc1F | > 200 | > 200 | –
O=C(N/N=C/c1c(-c2cc3ccccc3oc2=O)[nH]c2ccccc12)c1ccc(Cl)cc1 | > 200 | > 200 | –
O=C(N/N=C/c1c(-c2cc3ccccc3oc2=O)[nH]c2ccccc12)c1ccc(Cl)cc1F | > 200 | > 200 | –
